Measured values: patent US10947275B2, “Caged cell penetrating peptide-polymer conjugates for diagnostic and therapeutic applications” (Ben-Gurion University of the Negev Research and Development …, priority 2010, dated 2021)

Columns and labels:
[1] = Uncaging kinetics of cCPP under UV illumination, HPLC; type: physicochemical; conditions: cCPP 200 μM, 8 minutes UV illumination (700 μW/cm2; λ=365 nm), HPLC-UV 230 nm
Description: FIG. 2 depicts the uncaging kinetics of cCPP as a function of light illumination time (365 nm) as determined with HPLC.
Uncaging kinetics of cCPP. cCPP (200 μM) was dissolved in 100 μL MOPS buffer at pH=7.4 and exposed to UV light illumination (UV lamp 6 W; =365 nm). Aliquots (30 μL) were removed at various time points, immediately kept frozen, in dark until analyzed by HPLC. The molar fraction of cCPP was calculated from its HPLC peak area.
CPP with 3 Mtt-protected Lys, Ac-KRRMK^MttWK^MttK^Mtt (KRRMKWKXK SEQ ID NO: 6) was synthesized on a solid phase via Fmoc chemistry on a MBHA Resin. CPP was then modified to include 3 photolabile protecting groups on Lys side chains to give the caged CPP (cCPP), Ac-KRRMK^NvocWK^NvocK^Nvoc. The identity and purity (>90%) were determined by HPLC and MALDI-TOF mass spectrometer. In order to study the uncaging kinetics of the peptide, a solution of cCPP (200 μM) was exposed to UV light illumination (700 μW/cm2; λ=365 nm). Aliquots were removed at various time points, and then evaluated by high performance liquid chromatography with UV detection (HPLC-UV) at 230 nm. The molar fraction of cCPP was calculated from its HPLC peak (FIG. 2). 8 minutes of illumination were sufficient to attain >80% of uncaged CPP, and thus further experiments were therefore undertaken with 8-10 min of light illumination. […]

B16 cells = assay: Caging of CPP activity via reversible electrostatic interactions with polyanions, flow cytometry; type: cell-based; conditions: for mean fluorescence intensity of HPMA-CPP-FITC after pre-treatment with polyanion (masking of CPP activity): polyanion mixed with HPMA-CPP-FITC for 10 min, versus conjugate alone
Description: FIG. 7A-FIG. 7D depict FACS analysis results of B-16 cells incubated with HPMA-CPP-FITC conjugate mixed with different polyanions (Hep, FI, PGA, HA, P-GG, LMWH, Amb) for 10 min, and then added to B16-cell monolayers. Control cells were treated with HPMA-CPP-FITC conjugate only. FIG. 7A depicts results of B-16 cells incubated with HPMA-CPP-FITC conjugate mixed with Hep or FI. FIG. 7B depicts results of B-16 cells incubated with HPMA-CPP-FITC conjugate mixed with PGA or HA. FIG. 7C depicts results of B-16 cells incubated with HPMA-CPP-FITC conjugate mixed with P-GG or LMWH. FIG. 7D depicts results of B-16 cells incubated with HPMA-CPP-FITC conjugate mixed with Amb.
FIG. 8A-FIG. 8D depict FACS analysis results of stability testing of HPMA-CPP-FITC polyanion complexes incubated with B-16 cells at different time points. FIG. 8A depicts results of B-16 cells incubated with a complex of HPMA-CPP-FITC and the polyanion Hep. FIG. 8B depicts results of B-16 cells incubated with a complex of HPMA-CPP-FITC and the polyanion FI. FIG. 8C depicts results of B-16 cells incubated with a complex of HPMA-CPP-FITC and the polyanion LMWH. FIG. 8D depicts results of B-16 cells incubated with a complex of HPMA-CPP-FITC and the polyanion Amb.
FIG. 9A-FIG. 9D depict the reversible masking of CPP activity by polyanion complexes via the addition of protamine. FIG. 9A depicts the reversible masking of CCP activity by polyanion complexes comprising the polyanion fucoidan via the addition or protamine. FIG. 9B depicts the reversible masking of CCP activity by polyanion complexes comprising the polyanion LMWH via the addition or protamine. FIG. 9C depicts the reversible masking of CCP activity by polyanion complexes comprising the polyanion Heparin via the addition or protamine. FIG. 9D depicts the reversible masking of CCP activity by polyanion complexes comprising the polyanion P-GG-OH via the addition or protamine.
FIG. 10 depicts FACS analysis results of polyanion release from HPMA-CPP-FITC complexes by protamine was at the following order: LMWH>P-GG100%>Fl>Hep.
HPMA-CPP-FITC conjugate was mixed with various polyanions such as Polyglutamic acid (PGA); Fucoidan (FI); Heparin sulfate (Hep) Hyaluronic acid (HA); Low molecular weight heparin (LMWH), Amberlite IR120 (Amb) or Polyglycylglycine (P-GG) at a weight ratio of 3:1 or 5:1 in PBS. The solutions were left for 10 min at room temperature to allow HPMA-CPP-FITC-polyanion complex formation, and then added to B16 cell monolayers in growth medium The reversibility of masking the CPP activity in complexes was assessed following the addition of the counter polycation, protamine to the incubation medium. B16 cells were treated with HPMA-CPP-FITC-polyanion complexes for 10 min, and then the counter polycation protamine (4.7 KDa, 10-50 μg/ml, at the same weight ratio of HPMA conjugate) was added to the cells. Control cells were treated with HPMA-CPP-FITC-polyanion complexes without protamin. After 1 h, the cells were washed with PBS, harvested with trypsin and the cell associated fluorescence was analyzed by flow cytometry.
HPMA-CPP-FITC conjugate was mixed with different polyanions (Hep, FI, PGA, HA, P-GG, LMWH, Amb) and then added to B16-cell monolayers and compared to control cells treated with HPMA-CPP-FITC conjugate alone (FIGS. 7A-7D).
The masking of CPP activity by the polyanion complexes was readily reversible following the addition of the polycation, protamine (4.7 KD) (FIGS. 9A-9D). Greater intensity is readily seen in protamine treated (black lines) versus untreated (gray lines) samples.
The efficiency of polyanion release from HPMA-CPP-FITC complexes by protamine was at the following order: LMWH>P-GG100%>FI>Hep (corresponding to outermost versus innermost graphs) (FIG. 10).

PC-3 cells = assay: Light-mediated cytotoxicity, MTT assay, illumination time and dose dependence; type: cell-based; conditions: 80 μM dose (or equivalent dose of M-(cCPP)-KLAK), 15 min of light illumination
Description: FIG. 6A depicts illumination time-dependence and dose-dependence of the viability of PC-3 cells incubated with 80 μM (solid blue), 40 μM (dashed blue), 20 μM (dots blue) M-(cCPP)-KLAK (KLAK equiv), 80 μM KLAK (solid green), and 80 μM M-(cCPP) (solid red), as determined by MIT assay. The results presented are the average of 3 independent experiments, in duplicates. Untreated control cells corresponded to 100% viability. FIG. 6B depicts light-induced cell cytotoxicity of polymer-KLAK conjugates and free KLAK against various cell-types including A431 cells (top left graph), PC-3 cells (top right graph), 3LL cells (bottom left graph) and SW480 cells (bottom right graph). Cells were incubated with 60 μM KLAK equivalent M-(cCPP)-KLAK (dark column), M-(cCPP) (gray column) or 60 μM KLAK (white column) and were illuminated immediately with UV light (365 nm) for 8 minutes followed by 2 hours incubation at 37° C. Cell viability was analyzed by MIT assay.
The cytotoxicity of M-cCPP-KLAK, M-cCPP and o(KIAKLAK) (SEQ ID NO: 5)2, was assessed using a modified 3-(4,5-dimethylthiazol-2-yl)-2,5-diphenyltetrazolinium bromide (MTT). All concentrations of KLAK-HPMA copolymers used for these experiments are expressed in KLAK equivalents. All solutions were sterilized by filtering through a 0.2-μm membrane filter. […] The absorbance of each sample was measured at 570 nm. […]

Row | uncaged CPP attained [1] [%] | Substance | mean fluorescence intensity of HPMA-CPP-FITC after pre-treatment with polyanion (masking of CPP activity) (B16 cells) | order of efficiency of polyanion release from HPMA-CPP-FITC complexes by protamine (B16 cells) | toxicity towards PC-3 cells (PC-3 cells)
1 | > 80 | Ac-KRRMK^NvocWK^NvocK^Nvoc [cCPP] |  |  | 
2 |  | Fucoidan [FI] | significantly reduced | LMWH>P-GG100%>FI>Hep | 
3 |  | Heparin sulfate | significantly reduced | LMWH>P-GG100%>FI>Hep | 
4 |  | Levulinic acid-D(KLAKLAK)2 |  |  | no significant toxicity
5 |  | Low molecular weight heparin [LMWH] | significantly reduced | LMWH>P-GG100%>FI>Hep | 
